Source: EP1001770B1, “TAZAROTENE AND UVB PHOTOTHERAPY TREATMENT FOR PSORIASIS” (ALLERGAN, INC., priority 1997, dated 1998)

How the values were obtained:
stable plaque psoriasis = test: Clinical study of Tazarotene 0.1% gel plus UVB phototherapy versus vehicle plus UVB or UVB alone: efficacy on target lesions; format: in vivo, humans
Description: (§1) The Study objective was to assess safety and efficacy of pre-treatment with Tazarotene 0.1% gel and UVB phototherapy in comparison with the Tazarotene vehicle (placebo) and UVB phototherapy and UVB phototherapy, alone, for 10 weeks. During UVB phototherapy, topical agents were applied three times weekly to the target lesion by the phototherapy nurse. The study was a multicenter, investigator-masked study including 60 subjects and 120 target lesions. During the two-week pre-UVB phototherapy period the patients were randomly assigned to receive two of the following treatments: Tazarotene 0.1% gel once a day; vehicle gel once a day; or no treatment. The topical agents were applied once daily. Prior to UVB therapy, the minimal erythemal dose (MED) was assessed using a range of 20 mJoules/cm^2 up to 100 mJoules/cm^2. Initial starting UVB dose is 25% of MED. If MED is immeasurable, starting dose is 25 mJoules/cm^2. During the ten-week UVB phototherapy period the patients were treated with UVB therapy three times a week and topical therapy three times weekly (0.1% Tazarotene gel, vehicle gel, or no treatment) administered by the phototherapy nurse after UVB exposure. Study population was as follows: male or non-reproductive female; 18 years or older; stable plaque psoriasis; two bilaterally symmetrical plaques accessible to phototherapy; not exceeding 50% of TBS; baseline plaque elevation of at least four (moderate, in 0-8 scoring system); no oral retinoid within two months; no excessive vitamin A intake; no oral psoriatic therapy (other than retinoid) or PUVA within one month; no UVB within two weeks; no significant systemic disease or immunosuppression. The UVB exposure was increased until either improvement in psoriasis was noted or MED was reached. If one target lesion reached MED earlier than the other, a photo-opaque covering was applied to the former so the latter site could still be treated with a higher dose of UVB irradiation. If both target lesions cleared, UVB was discontinued. […] The following evaluation criteria was used: • Efficacy Variable • Plaque elevation, scaling, erythema: • Grading Scale • 0 = none, 2= mild, 4=moderate, 6=severe, 8=very severe (with whole-point increments (1, 3, 5, 7) serving as mid-points) • Global response to treatment • Total cumulative UVB exposure (mJoules/cm^2)
Treatment success is defined as moderate response or better.

[1] = Same clinical study: adverse events and tolerability; format: in vivo, humans
Description: as §1
The following adverse events were reported during the study: […]

[2] = adverse events reported during the study (count), with UVB phototherapy

Which results are given for `CCOC(=O)c1ccc(C#Cc2ccc3c(c2)C(C)(C)CCS3)nc1` [Tazarotene]?
reduction in plaque (stable plaque psoriasis; Figure 1, Tazarotene plus UVB compared with UVB treatment alone): more effective; reduction in scaling (stable plaque psoriasis; Figure 2, Tazarotene plus UVB compared with UVB treatment alone): more effective; reduction in erythema (stable plaque psoriasis; Figure 3, Tazarotene plus UVB compared with UVB treatment alone): more effective; treatment success rate (stable plaque psoriasis; Figure 4, Tazarotene and UVB phototherapy, by day 81, success = moderate response or better): 100%; reductions in plaque (stable plaque psoriasis; Figure 5, Tazarotene and UVB compared with UVB alone or UVB with vehicle (placebo)): greater; reductions in scaling (stable plaque psoriasis; Figure 6, Tazarotene and UVB compared with UVB alone or UVB with vehicle (placebo)): greater; reductions in erythema (stable plaque psoriasis; Figure 7, Tazarotene and UVB compared with UVB alone or UVB with vehicle (placebo)): greater; success rate (stable plaque psoriasis; Figure 8, Tazarotene and UVB treatment, at 81 days): 100%; success (stable plaque psoriasis; Figure 8, Tazarotene and UVB, at day 53): about 90%; time to reach treatment success (stable plaque psoriasis; Tazarotene and UVB compared with vehicle and UVB): more quickly; overall effectiveness in treating psoriasis (stable plaque psoriasis; Tazarotene and UVB compared with vehicle and UVB or UVB alone): more effective; Burning sensation [1, 2]: 1; Itching [1, 2]: 1; Lesional irritation [1, 2]: 0; Perilesional irritation [1, 2]: 2; Perilesional tenderness [1, 2]: 0; severity of adverse events ([1]; all reported adverse events): mild
